Where two headings read alike, the source gives them in different places.
Columns and labels:
Recombinant ALK kinase = molecular target: T1, Recombinant ALK kinase (Homo sapiens, UniProt Q9UM73); assay: ELISA-based in vitro kinase assay (ALK kinase inhibitory activity); format: biochemical
T1 construct: His tag (from pBlueBacHis2C vector); made in house; host or cells: insect cells, baculovirus
Experimental: (§1) Method: ELISA-Based In Vitro Kinase Assay
Recombinant ALK kinase was expressed in […] insect cells using the pBlueBacHis2C baculovirus vector system and purified using an anion exchange Fast Flow Q-sepharose column (Amersham-Pharmacia Biotech) followed by HiTrap™-nickel affinity column (Amersham-Pharmacia Biotech). Purified ALK protein was used to screen inhibitors in the ELISA-based kinase assay. […] Wells were then washed with 200 μl of wash buffer (PBS-Tween 0.05%) and left to dry for at least 2 hours at 37° C. The kinase reaction was performed in the presence of 50 mM Tris pH 7.5, 5 mM MnCl2, 5 mM MgCl2, 0.3 mM ATP and purified rALK in a total volume of 100 μl/well at 30° C. for 15 minutes. For inhibitor testing the reaction mix was preincubated with the inhibitor or solvent control for 10 mins at room temperature before transferring to the ELISA plate. After the reaction wells were washed 5 times with 200 μl of wash buffer. Phosphorylated peptide was detected using 100 μl/well of a mouse monoclonal anti-phosphotyrosine antibody (clone 4G10 UpstateBiotech Ltd) diluted 1:2000 in PBS+4% BSA. After 30 minutes incubation at room temperature the antibody was removed and wells were washed as described above. 100 μl of a secondary antibody (anti-mouse IgG, Horseradish Peroxidase linked whole antibody, Amersham Pharmacia Biotech) diluted 1:1000 in PBS+4% BSA was added to each well and the plate was incubated again for 30 minutes at room temperature before washing as above. The plate was developed using 100 μl/well TMB Substrate Solution (Endogen) and the reaction was stopped by adding an equal volume of H2SO4 0.36 M. Finally, the absorbance was read at 450 nm using an Ultrospec® 300 spectrophotometer (Amersham-Pharmacia Biotech).

[1] = molecular target: T2, BaF3 cells transformed with NPM/ALK (Homo sapiens, UniProt Q9UM73); assay: Tritiated thymidine uptake cell proliferation assay; format: cell-based; details: read-out: IC50 values on the proliferation of BaF3 cells transformed with NPM/ALK; 72 h incubation, 3[H]-thymidine uptake
T2 construct: fused on or other part: P06748 (Nucleophosmin)
T2 sequence (Q9UM73 whole entry, change not shown, the tested form may be a part): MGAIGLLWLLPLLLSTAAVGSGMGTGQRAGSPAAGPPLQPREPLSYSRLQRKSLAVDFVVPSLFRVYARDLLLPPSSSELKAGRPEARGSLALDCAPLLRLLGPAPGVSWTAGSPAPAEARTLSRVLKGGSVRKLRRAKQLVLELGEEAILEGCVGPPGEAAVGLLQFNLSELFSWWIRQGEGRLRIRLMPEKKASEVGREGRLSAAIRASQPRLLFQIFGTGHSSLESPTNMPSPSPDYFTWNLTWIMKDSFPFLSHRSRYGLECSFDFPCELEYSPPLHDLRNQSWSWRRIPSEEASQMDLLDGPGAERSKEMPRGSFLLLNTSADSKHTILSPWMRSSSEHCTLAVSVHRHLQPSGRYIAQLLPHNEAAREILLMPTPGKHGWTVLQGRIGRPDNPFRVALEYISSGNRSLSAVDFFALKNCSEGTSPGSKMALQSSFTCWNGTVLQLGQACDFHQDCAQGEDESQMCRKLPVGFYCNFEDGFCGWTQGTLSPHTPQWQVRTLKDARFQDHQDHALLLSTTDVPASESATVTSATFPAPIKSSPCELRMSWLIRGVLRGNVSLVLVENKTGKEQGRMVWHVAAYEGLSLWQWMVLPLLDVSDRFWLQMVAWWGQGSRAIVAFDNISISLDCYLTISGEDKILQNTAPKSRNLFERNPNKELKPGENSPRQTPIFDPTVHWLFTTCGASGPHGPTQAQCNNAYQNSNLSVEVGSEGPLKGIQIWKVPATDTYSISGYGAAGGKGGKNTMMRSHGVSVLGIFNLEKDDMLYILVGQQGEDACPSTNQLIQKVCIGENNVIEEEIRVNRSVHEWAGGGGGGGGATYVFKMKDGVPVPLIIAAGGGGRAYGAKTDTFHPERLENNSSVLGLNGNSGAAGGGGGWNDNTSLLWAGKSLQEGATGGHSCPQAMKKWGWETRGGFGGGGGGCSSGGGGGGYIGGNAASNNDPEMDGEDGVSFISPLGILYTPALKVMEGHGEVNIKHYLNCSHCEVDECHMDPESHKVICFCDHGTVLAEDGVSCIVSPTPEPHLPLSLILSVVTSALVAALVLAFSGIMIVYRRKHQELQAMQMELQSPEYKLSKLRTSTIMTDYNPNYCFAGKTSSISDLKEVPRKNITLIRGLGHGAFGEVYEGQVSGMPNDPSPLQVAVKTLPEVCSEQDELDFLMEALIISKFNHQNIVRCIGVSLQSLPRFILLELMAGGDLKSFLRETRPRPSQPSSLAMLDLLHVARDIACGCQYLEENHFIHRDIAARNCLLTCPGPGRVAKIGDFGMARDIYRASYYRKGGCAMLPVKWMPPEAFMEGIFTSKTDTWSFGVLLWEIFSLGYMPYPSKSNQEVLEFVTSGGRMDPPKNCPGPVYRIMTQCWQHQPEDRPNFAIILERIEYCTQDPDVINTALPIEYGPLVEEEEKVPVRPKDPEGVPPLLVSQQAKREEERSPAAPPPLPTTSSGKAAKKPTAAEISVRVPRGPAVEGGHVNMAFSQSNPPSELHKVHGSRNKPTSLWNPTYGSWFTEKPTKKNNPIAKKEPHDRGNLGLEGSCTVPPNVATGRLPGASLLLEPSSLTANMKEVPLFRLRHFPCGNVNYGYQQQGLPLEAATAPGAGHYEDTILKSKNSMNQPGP
Experimental: Method: Tritiated Thymidine Uptake Cell Proliferation Assay
BaF3 cells, transformed with the oncogenic fusion protein NPM/ALK, were seeded in U-bottomed 96-well plates at 10 000 cells/well in a volume of 100 μL in supplemented medium. Serial dilutions of inhibitors were added to the appropriate wells and volumes adjusted to 200 μL. Controls were treated with the equivalent volume of vehicle, DMSO, alone. Plates were incubated at 37° C. for 72 h. ^3[H-]-thymidine (1 μCi/well) was added for the last 16 h of incubation. Cells were harvested on to glass filters and ^3[H]-thymidine incorporation was measured using a scintillation counter (1430 MicroBeta, Wallac, Turku, Finland).

Recombinant Abl T315I = molecular target: T3, Recombinant Abl T315I (Homo sapiens, UniProt P00519, T315I); assay: ELISA-based in vitro kinase assay (Abl T315I mutant kinase inhibitory activity); format: biochemical; details: purified Abl T315I, 0.3 mM ATP, peptide substrate
T3 construct: His tag (from pBlueBacHis2C vector); made in house; host or cells: Sf9 insect cells, baculovirus
Experimental: as §1
Recombinant Abl T315I protein was expressed in Sf9 cells using the pBlueBacHis2C baculovirus expression vector. Abl T315I was purified using an anion exchange Fast Flow Q-sepharose column (Amersham-Pharmacia Biotech) followed by HiTrap™-nickel affinity column (Amersham-Pharmacia Biotech). Purified Abl T3151 was used in the ELISA-based kinase assay to screen inhibitors as described above. The kinase reaction was performed in the presence of 50 mM Tris pH 7.5, 1 mM MnCl2, 5 mM MgCl2, 0.3 mM ATP, peptide substrate ([…]) and purified Abl T315I.

[2] = purified rALK, 0.3 mM ATP, ALK peptide substrate, 30° C. 15 minutes, read-out: IC50 values on ALK

T1 sequence (Q9UM73 19-1620): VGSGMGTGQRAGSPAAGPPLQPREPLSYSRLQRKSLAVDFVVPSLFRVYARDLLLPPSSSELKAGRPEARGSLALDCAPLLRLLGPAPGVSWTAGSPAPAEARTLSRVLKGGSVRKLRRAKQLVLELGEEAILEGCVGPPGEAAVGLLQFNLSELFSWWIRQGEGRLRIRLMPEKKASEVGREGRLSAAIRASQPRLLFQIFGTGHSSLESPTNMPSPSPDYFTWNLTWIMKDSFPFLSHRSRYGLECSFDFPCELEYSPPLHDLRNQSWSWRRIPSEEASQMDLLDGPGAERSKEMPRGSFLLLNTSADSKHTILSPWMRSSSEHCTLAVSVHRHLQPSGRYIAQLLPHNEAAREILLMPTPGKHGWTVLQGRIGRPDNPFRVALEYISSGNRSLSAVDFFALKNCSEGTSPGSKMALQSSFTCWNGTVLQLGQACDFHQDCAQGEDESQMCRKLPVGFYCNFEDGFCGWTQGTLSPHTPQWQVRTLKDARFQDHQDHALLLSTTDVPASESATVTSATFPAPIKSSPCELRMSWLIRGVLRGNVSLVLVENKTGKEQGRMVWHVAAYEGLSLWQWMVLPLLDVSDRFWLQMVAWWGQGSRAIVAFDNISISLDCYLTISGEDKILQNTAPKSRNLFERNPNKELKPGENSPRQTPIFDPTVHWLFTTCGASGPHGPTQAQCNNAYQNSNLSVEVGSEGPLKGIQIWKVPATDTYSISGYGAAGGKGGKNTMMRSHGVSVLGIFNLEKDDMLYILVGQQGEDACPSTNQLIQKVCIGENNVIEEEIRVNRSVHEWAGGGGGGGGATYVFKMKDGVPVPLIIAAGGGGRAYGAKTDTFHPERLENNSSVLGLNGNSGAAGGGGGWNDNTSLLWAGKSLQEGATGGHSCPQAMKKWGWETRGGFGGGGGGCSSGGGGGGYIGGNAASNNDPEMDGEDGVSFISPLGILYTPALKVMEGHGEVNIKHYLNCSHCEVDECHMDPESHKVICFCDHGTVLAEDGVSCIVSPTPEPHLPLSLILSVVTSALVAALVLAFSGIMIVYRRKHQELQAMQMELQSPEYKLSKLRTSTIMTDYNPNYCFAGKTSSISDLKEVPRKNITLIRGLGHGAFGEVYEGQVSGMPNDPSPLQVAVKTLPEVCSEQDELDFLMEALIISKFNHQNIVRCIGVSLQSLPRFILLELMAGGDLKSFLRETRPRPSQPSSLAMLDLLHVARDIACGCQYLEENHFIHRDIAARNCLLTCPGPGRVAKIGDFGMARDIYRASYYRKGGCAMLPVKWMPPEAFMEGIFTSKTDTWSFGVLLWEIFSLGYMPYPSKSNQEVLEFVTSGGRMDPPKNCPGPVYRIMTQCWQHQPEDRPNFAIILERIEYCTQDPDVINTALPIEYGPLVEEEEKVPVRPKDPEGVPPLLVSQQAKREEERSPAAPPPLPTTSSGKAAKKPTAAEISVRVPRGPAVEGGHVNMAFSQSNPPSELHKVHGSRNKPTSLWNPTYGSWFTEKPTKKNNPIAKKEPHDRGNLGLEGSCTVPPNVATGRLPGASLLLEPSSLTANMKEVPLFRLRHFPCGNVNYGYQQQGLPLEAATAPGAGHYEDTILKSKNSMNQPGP

| SMILES | IC50 (Recombinant ALK kinase; [2]) | other results |
| --- | --- | --- |
| O=C(O)c1ccc(-c2ccc(-c3ccc(C(=O)O)o3)cc2)o1 [r239, 5,5′-(1,4-phenylene)difuran-2-carboxylic acid] | 20 ± 2.3 µM | – |
| CN1CCN(Cc2ccc(C(=O)Nc3nc(-c4ccc(-c5csc(NC(=O)c6ccc(CN7CCN(C)CC7)cc6)n5)cc4)cs3)cc2)CC1 [r218, N,N′-(4,4′-(1,4-phenylene)bis(thiazolle-4,2-diyl))bis(4-((4-methylpiperazin-1-yl)methyl)benzamide)] | – | IC50 (Recombinant ALK kinase): 1.3 ± 0.5 µM |
| O=C(Nc1ccc(-c2ccc(-c3ncco3)nc2)cn1)c1ccc(Br)o1 [r200, 5-bromo-N-(5-(6-(oxazol-2-yl)pyridin-3-yl)pyridin-2-yl)furan-2-carboxamide] | 4.8 ± 0.7 µM | – |
| Cc1nc(-c2ccc(-c3csc(-c4cnccc4C(F)(F)F)n3)cc2)no1 [r81] | 46.5 µM | – |
| O=C(Nc1ncc(-c2ccc3c(c2)Cc2ccccc2-3)s1)c1ccccc1I [r87, N-(5-(9H-fluoren-7-yl)thiazol-2-yl)-2-iodobenzamide] | – | IC50 (Recombinant ALK kinase): 4.3 ± 0.3 µM; IC50 (Recombinant Abl T315I): 6.43 ± 0.43 µM |
| Nc1nc(-c2ccc3c(c2)[nH]c2ccccc23)cs1 [r156, 4-(9H-Carbazol-2-yl)-thiazol-2-ylamine] | 82 ± 9 µM | – |
| Nc1nc(-c2ccc(-c3cccnc3)cn2)cs1 [r121] | 42 ± 3.3 µM | – |
| c1ccc2c(-c3ncc(-c4ccc(-c5cnc(-c6cccc7ccccc67)o5)cc4)o3)cccc2c1 [r19] | 1.2 µM | – |
| CC(=O)Nc1ncc(-c2ccc(-c3cnc(NC(C)=O)[nH]3)cc2)[nH]1 [r114, N,N′-(5,5′-(1,4-phenylene)bis(1H-imidazole-5,2-diyl))diacetamide] | – | IC50 (Recombinant ALK kinase): 0.75 ± 0.13 µM; IC50 (Recombinant Abl T315I): 2.1 µM |
| c1ccc(-c2ccc(-c3cncs3)nc2)nc1 [r113] | 57 ± 5 µM | – |
| Brc1ccccc1-c1ccc(-c2nccs2)nc1 [r116, 5-(2-bromophenyl)-2-(thiazol-2-yl)pyridine] | 27 ± 1.6 µM | – |
| CC(C)(C)c1csc(-c2ccc(-c3csnn3)cc2)n1 [r79] | 24 ± 1.5 µM | GI50 [1]: 33 µM |
| c1cc(-c2ccc(-c3ccoc3)cc2)co1 [r236, 1,4-di(furan-3-yl)benzene] | 1.3 ± 0.4 µM | – |
| Clc1cc(-c2cccnc2)ccc1-c1cncs1 [r120, 3-(3-Chloro-4-thiazol-5-yl-phenyl)-pyridine] | 12 ± 1.2 µM | – |
| Cc1csc(-c2ccc(-c3csnn3)cc2)n1 [r78] | 103 µM | GI50 [1]: 7.6 µM |
| O=C(Nc1ncc(-c2ccc(-c3cccnc3)cc2Cl)s1)c1ccc(Br)o1 [r128, 5-Bromo-furan-2-carboxylic acid[5-(2-chloro-4-pyridin-3-yl-phenyl)-thiazol-2-yl]-amide] | 6.7 µM | – |
| CN1CCN(Cc2ccc(C(=O)Nc3ncc(-c4ccc(-c5cccnc5)cc4Cl)s3)cc2)CC1 [r127, N-[5-(2-Chloro-4-pyridin-3-yl-phenyl)-thiazol-2-yl]-4-(4-methyl-piperazin-1-ylmethyl)-benzamide] | 4.6 µM | – |
| O=C(Nc1nc(-c2ccc3c(c2)[nH]c2ccccc23)cs1)c1ccc(Br)o1 [r170, 5-Bromo-furan-2-carboxylic acid[4-(9H-carbazol-2-yl)-thiazol-2-yl]-amide] | 14 ± 1.6 µM | – |
| CN1CCN(Cc2ccc(C(=O)Nc3nc(-c4ccc5c(c4)Cc4ccccc4-5)cs3)cc2)CC1 [r89] | 1.3 ± 0.2 µM | GI50 [1]: 36 µM |
| O=c1[nH]c(-c2ccc3c(c2)[nH]c2ccccc23)cs1 [r233] | 2.1 ± 0.7 µM | – |
| O=C(c1ccc(Br)o1)N(C(=O)c1ccc(Br)o1)c1ccc(-c2ccc(-c3ncco3)nc2)cn1 [r201] | 17 ± 1.5 µM | – |
| Cc1ccc(-c2csc(-c3ccc(-c4csnn4)cc3)n2)c(C)c1 [r69] | 9.3 ± 2.9 µM | – |
| Nc1nc(-c2ccc3c(c2)Cc2ccccc2-3)cs1 [r84] | 11 ± 1.3 µM | – |
| COc1ncc(-c2ccc(-c3cccnc3)cc2Cl)s1 [r262, 5-(2-cloro-4-(piridin-3-il)fenil)-2-metossitiazolo] | 3.7 ± 0.5 µM | – |
| CCOC(=O)c1csc(-c2ccc(-c3csnn3)cc2)n1 [r80] | 48 µM | GI50 [1]: 31 µM |
| Nc1ccc(-c2ccc(-c3cncs3)c(Cl)c2)cn1 [r235, 5-(3-cloro-4-(tiazol-5-il)fenil)piridin-2-ammina] | 21 ± 2.5 µM | – |
| O=[N+]([O-])c1ccc(-c2nc(-c3ccc(-c4csnn4)cc3)no2)cc1 [r75] | 8.8 ± 0.85 µM | – |
| CN1CCN(C(=O)c2ccc(-c3ccc(-c4ccc(C(=O)N5CCN(C)CC5)o4)cc3)o2)CC1 [r237, (5-{4-[5-(4-Methyl-piperazine-1-carbonyl)-furan-2-yl]-phenyl}-furan-2-yl)-(4-methyl-piperazin-1-yl)-methasone] | 31 ± 5.7 µM | – |

Continued, in another order:

| IC50 (Recombinant ALK kinase; [2]) | SMILES | other results |
| --- | --- | --- |
| 11 ± 0.72 µM | O=C(Nc1nc(-c2ccc(-c3cccnc3)cn2)cs1)c1ccco1 [r124] | – |
| 3.6 ± 0.5 µM | O=C(N/N=C/c1c[nH]c2ccccc12)c1cc(-c2ccc(-c3ccccc3)cc2)[nH]n1 [r66] | GI50 [1]: 4.8 µM |
| 27 µM | c1cc(-c2nc(-c3ccc4c(c3)OCCCO4)cs2)ccc1-c1csnn1 [r36] | – |
| 3.1 ± 0.34 µM | Fc1ccc(-c2csc(-c3ccc(-c4csnn4)cc3)n2)cc1F [r68] | – |
| 17 ± 1.4 µM | O=C(Nc1nc(-c2ccc3c(c2)[nH]c2ccccc23)cs1)c1ccc(-c2ccccc2)cc1 [r169] | – |
| 1.5 ± 0.17 µM | O=C1Nc2ccc(Br)cc2/C1=N/Nc1nc(-c2ccc(-c3ccccc3)cc2)cs1 [r49] | GI50 [1]: 12 µM |
| 10 ± 0.73 µM | O=C(Nc1nc(-c2ccc3c(c2)[nH]c2ccccc23)cs1)c1ccccc1 [r158, N-[4-(9H-Carbazol-2-yl)-thiazol-2-yl]-benzamide] | – |
| 7.7 ± 0.2 µM | Clc1ccc(-c2csc(-c3ccc(-c4csnn4)cc3)n2)cc1Cl [r35] | – |
| 27.3 µM | COCCCNc1nc(-c2ccc(-c3ccccc3)cc2)cs1 [r43] | – |
| 5.5 ± 2.3 µM | Cc1ccc(-c2csc(-c3ccc(-c4csnn4)cc3)n2)cc1 [r70] | – |
| 4.7 ± 0.7 µM | N#C/C(=C\c1cccs1)c1nc(-c2ccc(-c3ccccc3)cc2)cs1 [r67] | – |
| 1.6 ± 0.15 µM | O=S(=O)(Cc1ccco1)Cc1nc(-c2ccc(-c3ccccc3)cc2)cs1 [r48] | – |
| 11.7 µM | c1ccc(-c2ccc(-c3csc(-c4ccncc4)n3)cc2)cc1 [r83] | – |
| 37 ± 2.7 µM | O=C(Nc1nc(-c2ccc(-c3cccnc3)cn2)cs1)c1ccccc1 [r122] | – |
| 16 ± 4.8 µM | c1ccc(-c2ccc(-c3csc(N4CCOCC4)n3)cc2)cc1 [r85] | – |

Source: patent US20110112110A1, “ANTIPROLIFERATIVE COMPOUNDS AND THERAPEUTIC USES THEREOF” (UNIVERSITA' DEGLISTUDI DI MILANO- BICOCCA, priority 2008, published 2011)
